Two compounds from ChEMBL document CHEMBL1166004, “Microbial transformations of the taxan ring of 10-DAB by some strains of the fungus Curvularia lunata: formation of the bis-abeotaxanes wallifoliol and 4-deacylwallifoliol” (J Nat Prod, 2010) can be followed below.

In general, IC50 refers to the concentration at which inhibition is half-maximal. Low readings indicate greater potency, high ones weaker potency.

The assay relates to NCI-H460. The assay is described as follows: Cytotoxicity against human H460 cells. It counts as functional, cell-based.

With `CC(=O)O[C@@]12CO[C@@H]1C[C@H](O)[C@]1(C)[C@@H]2[C@H](OC(=O)c2ccccc2)[C@]23C[C@H](O)C(C)=C2[C@@]1(O)C(=O)OC3(C)C` [WALLIFOLIOL], it took 68 µM to reach half-maximal inhibition (IC50).

`CC1=C2[C@]3(O)C(=O)OC(C)(C)[C@]2(C[C@@H]1O)[C@@H](OC(=O)c1ccccc1)[C@@H]1[C@]2(O)CO[C@@H]2C[C@H](O)[C@]13C` registered an IC50 of 103 µM.
